Measured values taken from patent publication US5451571A (The Cleveland Clinic Foundation, priority 1994, dated 1995).
Entries after “also recorded” stand apart in the source; their conditions may differ. Read-outs that look alike come from different tables or passages of the source. Residues, ends and D or L forms follow the SMILES beside them. No end group written: not given here. *: point of attachment. Cbz = O=C(OCc1ccccc1)*

Assays:
[1] = biological target: T1, prolylendopeptidase (Canis lupus familiaris, UniProt A0A8I3N6C8); test: 125I-Ang-(1-7) production from 125I-Ang I in dog hypothalamus homogenates (HPLC); format: biochemical; conditions: DTT 1 mM
T1 construct: from tissue; host or cells: dog hypothalamus homogenate, 10,000 g supernatant
T1 sequence (A0A8I3N6C8 1-710): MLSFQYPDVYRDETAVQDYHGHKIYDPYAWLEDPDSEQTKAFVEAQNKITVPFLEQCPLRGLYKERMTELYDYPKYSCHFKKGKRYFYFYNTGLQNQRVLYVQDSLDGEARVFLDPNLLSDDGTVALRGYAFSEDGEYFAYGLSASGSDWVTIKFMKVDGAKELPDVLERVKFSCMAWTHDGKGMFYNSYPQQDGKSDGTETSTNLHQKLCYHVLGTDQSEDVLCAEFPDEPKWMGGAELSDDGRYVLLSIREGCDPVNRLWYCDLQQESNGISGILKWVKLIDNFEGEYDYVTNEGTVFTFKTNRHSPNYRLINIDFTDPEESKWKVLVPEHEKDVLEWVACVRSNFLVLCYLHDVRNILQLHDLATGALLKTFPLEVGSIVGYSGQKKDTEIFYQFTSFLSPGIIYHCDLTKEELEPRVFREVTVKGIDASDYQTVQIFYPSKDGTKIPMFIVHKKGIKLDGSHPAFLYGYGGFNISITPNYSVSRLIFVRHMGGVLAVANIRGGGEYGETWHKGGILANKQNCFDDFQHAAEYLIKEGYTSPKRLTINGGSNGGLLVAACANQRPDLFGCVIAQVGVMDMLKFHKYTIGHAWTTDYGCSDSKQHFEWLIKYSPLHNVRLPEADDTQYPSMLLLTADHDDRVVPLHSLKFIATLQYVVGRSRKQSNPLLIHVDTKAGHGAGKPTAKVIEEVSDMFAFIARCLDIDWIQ
Procedure: As a result of these discoveries, the enzyme(s) involved in the production of Ang-(1-7) in homogenates (20 mM TRIS HCl buffer, pH 7.5) of dog hypothalamus were evaluated.

[2] = tested on: vascular smooth muscle cultures (VSMC) from normotensive (WKY) rats; test: 125I-Ang I metabolism by intact vascular smooth muscle cultures of WKY (HPLC); format: cell-based, rat; conditions: for effect on the levels of 125I-Ang-(1-7) / inhibition of the formation of 125I-Ang-(1-7) from 125I-Ang I: 10 μM
Procedure: (§6) Aortic smooth muscle cells were isolated according to the following general process. The adventia and outer third medial layer were removed from segments (2 cm^2) of the thoracic aorta from SHR or WYK rats, minced into 1 cm^2 pieces and allowed to adhere on plastic for 15 minutes. The explants were incubated with Dulbecco's modified Eagles' medium (DMEM, Irvine Scientific CO., Irvine, Calif.) diluted 1:1 with F12 (Irvine Scientific) and supplemented with 10% fetal calf serum and 1% penicillin/streptomyocin in a humid atmosphere of 95% air, 5% CO2 at 37° five days and the tissues were removed after a halo of cells appeared around the explant. […] The culture medium was changed daily for the three days and thereafter, every third day. The smooth muscle cells were evaluated both for their morphological appearance and their recognition of a monoclonal antibody to smooth muscle-type alpha actin (A 2547, Sigma Chemical, St. Louis, MO).
(§7) For metabolism studies, cell monolayers (passage 4 to 6) in 24 well plates were washed twice with 1.0 ml of Krebs-Ringer solution (125 mM NaCl, 5 mM KCl, 1.0 mM CaCl2, 1.2 mMMgSO4, 25 mM HEPES, pH 7.4 and 6 mM glucose). Intact cells were incubated with ^125 I-Ang I (0.2-0.4 nM, final concentration) both in the presence and absence of enzyme inhibitors in 0.25 ml of Krebs buffer at 37° C. At selected time points, aliquots (0.05 ml) were withdrawn from the well, diluted in 0.15 ml 80% acetonitrile (ACN)/0.2% heptafluorobutyric acid (HFBA) stored at -80° C. prior to analysis by high performance liquid chromatography (HPLC). In addition, 0.20 ml of the medium, exposed to the cells for 60 minutes were incubated with ^125 I-Ang I for 60-120 minutes at 37° C. and analyzed by HPLC.
(§8) ^125 I-products were characterized by HPLC using a heptafluorobutyric acid (HFBA) solvent system. This system consisted of 0.13% HFBA (mobile phase A) and 80% ACN/0.13% HFBA (mobile phase B) and the analysis was performed on a Kratos 400 HPLC equipped with a Waters Nova-Pak C18 column (Waters, MA, 2.1×15 mm) and an Aquapore column (Waters, MA, 2.1×15 mm) and an Aquapore C8 guard column (Applied Biosystems, 3.2×1.5 mm). The gradient conditions consisted of 20-50% B Linear (30 min) and 50% B isocratic (10 min) at a flow rate of 0.3 ml/min at room temperature. HPLC fractions were collected every 0.5 min and counted in a gamma counter. Products were identified by comparison of their retention times to those of standard ^125 I-angiotensin peptides. To further assess the identity of each radioactive peak, either the incubation samples or ^125 I-products were rechromatographed using a trifluoracetic acid (TFA) solvent. This system consisted of 0.1% TFA, pH 4.5 (mobile phase A) and 60% ACN/0.1% TFA pH 4.5 (mobile phase B). A linear gradient of 15-45% B (30 min) and 45% B isocratic (10 min) at 0.3 ml/min at room temperature was performed on the HPLC system described above.
(§9) Statistics: Differences in the generation of ^125 I-peptides under various conditions were assessed by analyses of variance followed by Newman Keuls multiple comparison test. The criterion for statistical significance was set at p<0.05.

[3] = tested on: vascular smooth muscle cultures (VSMC) from spontaneously hypertensive rats; conditions: for effect on the levels of 125I-Ang-(1-7) / inhibition of the formation of 125I-Ang-(1-7) from 125I-Ang I: 10 μM
Procedure: as §6, §7, §8, §9

[4] = tested on: spontaneously hypertensive rats (SHR); test: Blood angiotensin peptides (RIA) after i.v. Ang I in conscious SHR with enzyme inhibitors; format: in vivo, rat
Procedure: (§1) All experiments were carried out in strict adherence to the principles sponsored by the American Physiological Society. Male 16-week-old SHR(319±4 gm) and WKY(315±4 gm) controls (Charles River, Wilmington, Mass.) were housed in rooms maintained on a 12 hr light-dark cycle. Animals ate a solid diet of rat chow (Purina, Bedford, Ohio) and had free access to water. Cannulas (PE-50 and PE-10, Clay Adams Becton Dickinson, Parsippany, N.J.) were implanted into a femoral artery and vein using aseptic conditions in rats anesthetized with 1% halothane 24 hours beforehand. The free ends of the cannulas were tunneled under the skin and externalized at the back of the neck.
(§2) Conscious rats were divided into five groups. Group I (n=4 SHR and 4 WKY) received an i.v. injection of 0.9% NaCl. Group II (n=4 SHR and 4 WKY) was given an i.v. injection of enalaprilat (MK-422,2 mg/kg). Group III (n=4 SHR and 4 WKY) was injected with (N-{N-[1-(S)-carboxy-3-phenylpropyl]-(S)-phenylalanyl}-(S)-isoserine) at a dose of 15 mg/kg. […] Group IV (n=4 SHR and 4 WKY) received both MK-422 (2 mg/kg) and SCH 39,370 (15 mg/kg). Group V (n=3 SHR and 3 WKY) were given MK- 422 (2 mg/kg) and Z-prolyl-prolinal (5 mg/kg), a specific inhibitor of prolyl endopeptidase (Friedman TC, Orlowski M, Wilk S: Prolyl Endopeptidase: Inhibition in vivo by N-benzyloxycarbonyl-prolyl-prolinal. J. Neurochem. 42:237-241,1984). Either saline (vehicle) or the enzyme inhibitors were administered 20 minutes before an i.v. injection of 0.2 ml of Ang I (2 nmol) in heparinized saline. Serial samples of arterial blood (0.2 ml) were rapidly collected into ice-chilled tubes containing 5 ml of 80% ethanol/0.1N HCL every 15-30 sec before and after injection of Ang I. The amount of blood removed in each sample was replaced with an equal volume of saline. The dead space (0.08 ml) of the femoral artery catheter was cleared of any remaining saline or blood before obtaining the samples.
(§3) Peptide Extraction and Analyses: Samples were centrifuged at 5,000 g for 20 minutes; the supernatant was stored for 12 hours at -20° C. After a second centrifugation step (10,000 g, 20 min) the supernatant was diluted 1:1 (V:V) with 1% heptaflurobutyric acid (HFBA), stored for 4-6 […] hours at 4° C., and centrifuged again at 15,000 g. This supernatant was further diluted 1:4 with 0.2% HFBA and concentrated on a Sep-Pak Vac Cartridge (Millipore Co., Milford, Mass.) activated beforehand with 3 ml of 60% acetonitrile/0.2% HFBA, 3 ml of 0.1% bovine serum albumin in 0.2% HFBA, and 5 ml of HFBA. After application of the supernatant, the column was washed with 10 ml of 0.2% HFBA. Angiotensin peptides were eluted with 8 ml of 60% acetonitrile/0.2% HFBA. Fractions were evaporated to dryness in a vacuum centrifuge (Savant Instrument Inc., Hicksville, N.Y.) for measurements by radioimmunoassay (RIA). Different aliquots of the samples were assayed to ensure linearity. Peptide recovery for Ang I added to the acid ethanol solution prior to blood sample averaged 85±4%, n=6, SFM): peptide values were not corrected for recovery. Moreover, no in vitro conversion of Ang I into either Ang-(1-7) or Ang II was observed.
(§4) The RIAs employed by the inventors to determine concentrations of Ang I, Ang II, and Ang-(1-7) are described in detail elsewhere. See, Chappell MC, Brosnihan KB, Diz DI, Ferrario CM: Identification of Angiotensin-(1-7) in Rat Brain: Evidence for Differential Processing of Agiotensin Peptides. J. Biol. Chem. […]:16518-16523,1989; and, Kohara K, Brosnihan KB, Chappell MC, Khosla MC, Ferrario CM: Angiotensin-(1-7): A Member of Circulating Angiotensin Peptides. Hypertension 17:131-138, 1991. […] The sensitivity of the Ang I assay (defined as twice the minimum detection level) averaged 5 fmol/tube. The Ang II antibody was produced by the inventors. […] The sensitivity of the Ang II RIA is 0.5 fmol/tube. The antibody of Ang-(1-7) (Core No. 1) was obtained in the inventors laboratory. […]

[5] = tested on: Wistar Kyoto (WKY) rats; test: Blood angiotensin peptides (RIA) after i.v. Ang I in conscious WKY with enzyme inhibitors; format: in vivo, rat
Procedure: as §1, §2, §3, §4

[6] = tested on: SHR; test: Blood pressure effect of SCH 39,370 in SHR; format: in vivo, rat
[7] = tested on: NEP 24.11; conditions: cited from earlier work
[8] = biological target: ACE (Homo sapiens, UniProt P12821); conditions: cited from earlier work
Sequence of ACE (P12821 30-1306, species assumed): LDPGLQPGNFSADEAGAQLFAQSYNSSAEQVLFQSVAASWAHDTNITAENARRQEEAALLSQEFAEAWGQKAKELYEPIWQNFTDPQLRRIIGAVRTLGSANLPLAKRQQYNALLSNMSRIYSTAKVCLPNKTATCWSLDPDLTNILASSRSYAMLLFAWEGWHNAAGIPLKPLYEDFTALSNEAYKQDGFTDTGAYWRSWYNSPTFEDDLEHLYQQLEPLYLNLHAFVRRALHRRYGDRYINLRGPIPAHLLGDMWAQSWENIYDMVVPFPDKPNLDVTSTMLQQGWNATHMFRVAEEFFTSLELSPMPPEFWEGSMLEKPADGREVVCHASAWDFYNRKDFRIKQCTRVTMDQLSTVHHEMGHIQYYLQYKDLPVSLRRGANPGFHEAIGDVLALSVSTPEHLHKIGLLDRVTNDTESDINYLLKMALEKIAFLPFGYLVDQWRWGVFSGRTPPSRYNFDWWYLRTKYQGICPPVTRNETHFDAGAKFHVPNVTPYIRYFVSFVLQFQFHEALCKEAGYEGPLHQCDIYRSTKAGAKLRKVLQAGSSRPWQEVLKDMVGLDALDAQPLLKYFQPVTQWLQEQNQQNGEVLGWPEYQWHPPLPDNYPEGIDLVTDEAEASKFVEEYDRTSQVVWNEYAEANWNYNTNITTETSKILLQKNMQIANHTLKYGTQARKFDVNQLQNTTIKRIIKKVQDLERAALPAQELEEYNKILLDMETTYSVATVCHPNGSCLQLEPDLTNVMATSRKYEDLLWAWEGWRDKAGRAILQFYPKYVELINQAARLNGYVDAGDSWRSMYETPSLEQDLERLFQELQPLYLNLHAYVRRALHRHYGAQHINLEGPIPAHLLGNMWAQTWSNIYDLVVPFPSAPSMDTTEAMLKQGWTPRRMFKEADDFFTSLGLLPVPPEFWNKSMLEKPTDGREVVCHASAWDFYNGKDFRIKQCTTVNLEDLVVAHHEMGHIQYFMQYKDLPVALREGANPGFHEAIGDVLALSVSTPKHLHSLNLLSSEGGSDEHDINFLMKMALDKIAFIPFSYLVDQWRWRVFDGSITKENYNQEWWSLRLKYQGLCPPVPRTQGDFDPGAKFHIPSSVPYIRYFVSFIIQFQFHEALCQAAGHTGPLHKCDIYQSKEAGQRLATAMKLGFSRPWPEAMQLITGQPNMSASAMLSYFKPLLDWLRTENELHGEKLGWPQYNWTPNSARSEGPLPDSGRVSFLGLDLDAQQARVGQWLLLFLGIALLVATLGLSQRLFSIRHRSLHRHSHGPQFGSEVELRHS

[9] = biological target: T2, carboxypeptidase A (Homo sapiens, UniProt P15085); conditions: cited from earlier work
T2 sequence (P15085 111-419): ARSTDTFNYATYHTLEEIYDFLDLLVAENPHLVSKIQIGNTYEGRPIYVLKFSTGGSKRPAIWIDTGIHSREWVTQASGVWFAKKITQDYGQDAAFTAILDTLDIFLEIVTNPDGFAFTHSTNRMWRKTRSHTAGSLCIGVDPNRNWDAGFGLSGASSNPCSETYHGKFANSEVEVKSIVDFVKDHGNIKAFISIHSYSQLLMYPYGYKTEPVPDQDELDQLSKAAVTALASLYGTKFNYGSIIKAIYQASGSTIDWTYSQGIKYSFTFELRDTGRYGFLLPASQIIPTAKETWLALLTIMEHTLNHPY

[10] = tested on: DOCA-salt hypertensive rats; conditions: cited from earlier work
[11] = tested on: spontaneously hypertensive rats (SHR); test: Third ventricle push-pull perfusion in SHR, MAP and HR; format: in vivo, rat
Procedure: (§5) In order to assess the effectiveness of Z-Proprolinal, the specific inhibitor of prolyl endopeptidase, in controlling blood pressure the following study was conducted. […] Similar studies were performed in age-matched normotensive Wistar-Kyoto control rats (WKY) (obtained from Taconic Farms, New York).

[12] = tested on: normotensive Wistar-Kyoto control rats (WKY); test: Third ventricle push-pull perfusion in WKY, MAP and HR; format: in vivo, rat
Procedure: as §5

[13] = mammals; cited from earlier work
[14] = tested on: NEP 24.11; conditions: human; cited from earlier work
[15] = human urine; conditions: cited from earlier work
[16] = swine urine; conditions: cited from earlier work
[17] = vascular smooth muscle; conditions: cited from earlier work
[18] = cultured mouse spinal cord cells; conditions: cited from earlier work
[19] = preparations of synaptic membranes from the rat brain; conditions: cited from earlier work
[20] = supernatants of dog brain tissue punch homogenates (ACE activity assay); conditions: mongrel dogs, 37° C., up to 15 minutes

O[C@@H](CS)[C@@H](O)CS [DTT]
increase in the rate of generation of Ang-(1-7) [1]: about three fold

O=S(=O)(O)c1cc[c]([Hg][Cl])cc1 [PCMS, p-chloromercuriphenylsulfonate acid]
inhibition of 125I-Ang-(1-7) levels ([2]; 1 μM, data not shown): to a similar extent as that observed with cPF-AAF-pAB
inhibition of 125I-Ang-(1-7) levels ([3]; SHR VSMC, 1 μM, data not shown): to a similar extent as that observed with cPF-AAF-pAB

O=C(O)[C@H](CCc1ccccc1)N[C@@H](Cc1ccccc1)C(=O)NC[C@H](O)C(=O)O [SCH 39,370, N-{N-[1-(S)-carboxy-3-phenylpropyl]-(S)-phenylalanyl}-(S)-isoserine]
reduction of peak levels of Ang-(1-7) below vehicle ([4]; SHR): 74%
peak level of Ang I in blood ([4]; SHR, 15 seconds after Ang I 2 nmol i.v., saline (label Ang I) or SCH 39,370 15 mg/kg 20 minutes before): 6.2 ± 0.4 pmol/mL
peak level of Ang II in blood ([4]; SHR, 15 seconds after Ang I 2 nmol i.v., saline (label Ang I) or SCH 39,370 15 mg/kg before): 27.2 ± 3.8 pmol/mL
change of baseline and peak plasma levels of Ang II ([4]; SHR, SCH 39,370): double
formation / levels of Ang-(1-7) versus vehicle ([4]; SHR, SCH 39,370 15 mg/kg alone, difference statistically significant): decreased; also recorded: inhibited the formation of Ang-(1-7)
baseline level of Ang II ([4]; SHR, after SCH 39,370 15 mg/kg, before 0.02±0.02): 0.18 ± 0.04 pmol/mL
inhibition of Ang-(1-7) production at larger doses ([4]; preliminary experiments, doses above 15 mg/kg, strain not stated): no further inhibition
reduction of peak levels of Ang-(1-7) below vehicle [5]: 51%
peak level of Ang I in blood ([5]; 15 seconds after Ang I 2 nmol i.v., saline (label Ang I) or SCH 39,370 15 mg/kg 20 minutes before): 4.3 ± 0.4 pmol/mL
peak level of Ang II in blood ([5]; 15 seconds after Ang I 2 nmol i.v., saline (label Ang I) or SCH 39,370 15 mg/kg before): 21.8 ± 5.4 pmol/mL
change of baseline and peak plasma levels of Ang II ([5]; SCH 39,370): double
formation of Ang-(1-7) versus vehicle ([5]; SCH 39,370 15 mg/kg alone, difference not significant (p>0.05)): inhibited the formation of Ang-(1-7)
baseline level of Ang II ([5]; after SCH 39,370 15 mg/kg, before 0.04±0.02): 0.12 ± 0.04 pmol/mL
effect on blood pressure [6]: did not reduce blood pressure
inhibition of NEP 24.11 [7]: specific and potent inhibitor
inhibition of ACE [8]: does not inhibit
inhibition of carboxypeptidase A [9]: does not inhibit
effect on blood pressure [10]: antihypertensive effects

O=C[C@@H]1CCCN1C(=O)[C@@H]1CCCN1C(=O)OCc1ccccc1 [ZPP, N-benzyloxycarbonyl-prolylprolinal] (Cbz-Pro-Pro-aldehyde)
fall in MAP in response to depolarizing K+ after ZPP pretreatment ([11]; K+ alone -19±4 mmHg): did not change the magnitude of the fall in MAP
HR response to depolarizing K+ after ZPP pretreatment ([11]; K+ alone -32±7 beats/min): attenuated
decrease in mean arterial pressure ([11]; ZPP 1 μM perfusion of third ventricle, n=13, basal MAP 156±5 mmHg): -37±4 mmHg
heart rate (HR) with ZPP perfusion ([11]; ZPP 1 μM, from 384±10): 376±19 beats/min
effect on either MAP or HR ([12]; WKY (n=13), ZPP 1 μM): no effect
MAP with ZPP perfusion ([12]; WKY, ZPP 1 μM, from 99±6): 100±7 mmHg
HR with ZPP perfusion ([12]; WKY, ZPP 1 μM, from 379±18): 368±27 beats/min
reduction in MAP by K+ in the presence of ZPP ([12]; WKY, K+ alone -16±3 mmHg): -6±4 mmHg
reduction in HR by K+ in the presence of ZPP ([12]; WKY, K+ alone -37±7 beats/min): -13±8 beats/min
effect on the levels of 125I-Ang-(1-7) [2]: no effect
effect on the levels of 125I-Ang-(1-7) ([3]; SHR VSMC): no effect
blood-brain barrier (BBB) passage [13]: readily traverses the blood-brain barrier

C[C@H](NC(=O)[C@H](C)NC(CCc1ccccc1)C(=O)O)C(=O)N[C@@H](Cc1ccccc1)C(=O)Nc1ccc(C(=O)O)cc1 (stereo partly drawn) [cFP-AAF-pAB, Carboxyphenylpropyl-alanyl-alanyl-phenylalanyl-para-aminiobenzoate]
inhibition of the formation of 125I-Ang-(1-7) from 125I-Ang I [2]: 90%
inhibition of the formation of 125I-Ang-(1-7) from 125I-Ang I ([2]; listed as cPf-AAF-pAB): over 90%
inhibition of the formation of 125I-Ang-(1-7) from 125I-Ang I ([3]; SHR VSMC): 90%
inhibition of the formation of 125I-Ang-(1-7) from 125I-Ang I ([3]; SHR VSMC, listed as cPf-AAF-pAB, 10 µM): over 90%

O=C(O)CNC(=O)C(CS)Cc1ccccc1 (stereo not drawn) [thiorphan]
effect on the levels of 125I-Ang-(1-7) [2]: no effect
effect on the levels of 125I-Ang-(1-7) ([3]; SHR VSMC): no effect

Asp-Arg-Val-Tyr-Ile-His-Pro-Phe
cleaved bond [14]: Tyr4-Ile5
fragment found [15]: Angiotensin-(1-7)
fragment found [16]: Angiotensin-(1-7)
fragment found [17]: Angiotensin-(1-7)
fragment found [18]: Angiotensin-(1-7)
fragment found [19]: Angiotensin-(1-7)

His-Leu
not cleaved [20]: hydrolysis of the product His-Leu was less than 6%

^125 I-Ang I: 125I-labelled Ang I used as substrate (DRVYIHPFHL; also: 125I label; UniProt P01019 25-34, looked up)
125I-Ang-(1-7) generation as share of the total 125I-Ang I metabolism [3]: 65-80%
main peptide product in the medium [3]: ^125 I-Ang-(1-7)
